Values quoted from earlier work in patent publication US5888537A, “Vinca alkaloid vesicles with enhanced efficacy and tumor targeting properties” (priority 1997, dated 1999).
Where two headings read alike, the source gives them in different places.

Details: clinical use, background

Row | Compound | side effect | side effect (listed as Vincristine) | side effect (listed as vincristine)
1 | CC[C@]1(O)C[C@@H]2CN(CCc3c([nH]c4ccccc34)[C@@](C(=O)OC)(c3cc4c(cc3OC)N(C)[C@H]3[C@@](O)(C(=O)OC)[C@H](OC(C)=O)[C@]5(CC)C=CCN6CC[C@]43[C@@H]65)C2)C1 [vinblastine] | Alopecia and hair loss | – | –
2 | CC[C@]1(O)C[C@H]2CN(CCc3c([nH]c4ccccc34)[C@@](C(=O)OC)(c3cc4c(cc3OC)N(C=O)[C@H]3[C@@](O)(C(=O)OC)[C@H](OC(C)=O)[C@]5(CC)C=CCN6CC[C@]43[C@@H]65)C2)C1 [Free Vcr, vincristine] | – | Neurotoxicity | Alopecia and hair loss
